Experimental data reported in patent US5654321A, “2-chloro-3-arylamino-1,4-naphthoquinone derivatives, process for preparation thereof and use thereof as an agent for inhibiting platelet aggregation” (Dong Kook Pharmaceutical Co. Ltd., priority 1996, dated 1997).
Entries after “also recorded” stand apart in the source; their conditions may differ. Where two headings read alike, the source gives them in different places.

Assays:
rabbit platelet = conditions: Ko et al., Thromb. Res. 57, 453-463, 1990; cited from earlier work
[1] = tested on: washed platelet (thromboxane B2 synthesis); assay: Inhibition of thromboxane A2 production (thromboxane B2 by radioimmunoassay) in collagen-activated platelets; format: cell-based, rat; conditions: for Thromboxane B2: DMSO + collagen 98.44 ± 11.52, DMSO + saline 0.82 ± 0.22
Experimental: The ability of producing thromboxane A2 was determined as follow according to the method described in literature [see, Ko, F. N., Sheu, S. J., Liu, Y. M., Huang, T. F., and Teng, C. M., Inhibition of rabbit platelet aggregation by 1,4-naphthoquinones, Thromb. Res. 57, 453-463, 1990]. The experiment was conducted in a plastic cuvette containing 0.5 ml of the washed platelet (3×10^8 platelet/ml) while maintaining the temperature at 37° C. First, the washed platelet was pre-treated with the compound of the present invention, NQ-Y15, for 8 minutes and then collagen was added thereto. After incubation for 5 minutes, the reaction was allowed to stop by adding 2 mM ethylenediamine tetraacetic acid and 50 μM indomethacin. This mixture was centrifuged under 12,000×g at room temperature for 2 minutes to separate the supernatant which was then stored at -20° C. Since thromboxane A2 has a unstable structure and therefore, is immediately converted into a stable thromboxane B2, the production of thromboxane B2 as an index for the thromboxane A2 production was measured by radioimmunoassay.

washed platelet [2] = assay: Inhibition of platelet aggregation induced by platelet agonists (aggregometer, light transmission, method of Born); format: cell-based, rat; conditions: for IC50: washed platelet, 37° C., read-out: concentration by which the platelet aggregation induced by agonists is reduced by 50%
Experimental: Blood was taken from abdominal aorta of rat using a syringe in which sodium citrate (final content 0.38%) was previously filled, and centrifuged under 160×g at room temperature for 15 minutes to obtain the platelet rich plasma as the supernatant. This platelet rich plasma was centrifuged again under 1500×g for 15 minutes to obtain the precipitate which was then washed three times with a washing buffer solution (129 mM sodium chloride, 0.8 mM dipotassium hydrogenphosphate, 8.9 mM sodium carbonate, 2.8 mM potassium chloride, 0.8 mM magnesium chloride, 5.6 mM glucose, 10 mM N-[2-hydroxyethyl]-piperazine-N'-[2-ethanesulfonic acid], acidity pH 7.4) containing 2 mM ethylenediamine tetraacetic acid to remove protein and calcium from the plasma. This […] was then carefully re-suspended in a modified Tyrode's buffer solution (129 mM sodium chloride, 0.8 mM dipotassium hydrogenphosphate, 8.9 mM sodium carbonate, 2.8 mM potassium chloride, 0.8 mM magnesium chloride, 5.6 mM glucose, 10 mM N-[2-hydroxyethyl]piperazine-N-'-[2-ethanesulfonic acid], acidity pH 7.4) containing 0.35% bovine serum albumin to obtain the washed platelet.
In this experiment, the platelet aggregation ability was determined by measuring a change in light transmission depending on turbidity change by means of an apparatus for measuring platelet aggregation ability (Chronolog Co.: Pennsylvania, Harvertown) according to a method of Born (see, Born, G. V. R., Nature, 194, 927, 1962). As the control, the light transmission degree for the plasma having substantially no platelet was used. 495 μl of the platelet rich plasma prepared in the above (1) was added to a cuvette for aggregometer, which has a silicon-treated surface. This cuvette was pre-treated by inserting it into a cuvette channel which is maintained at 37° C. and retaining for 30 seconds. Then, 2.5 μl of the compound according to the present invention, NQ-Y15 (final concentration 10^-4 M), dissolved in dimethylsulfoxide was added to the cuvette. The reaction was conducted again at 37° C. for 8 minutes. Then, the change in light transmission developed by adding 2.5 μl of thrombin (final concentration 0.5U/ml) thereto was measured for 10 minutes.
In addition, 495 μl of the washed platelet prepared in the above (1) was pre-treated for 30 seconds at 37° C. according to the same procedure as above and then 2.5 μl of the compound according to the present invention, NQ-Y15, dissolved in dimethylsulfoxide was added thereto. This mixture was allowed to react for 8 minutes at 37° C. Then, 2.5 μl of the platelet agonist (thrombin 0.1U/ml, collagen 10 μg/ml or calcium ionophore A23187 having the following formula 2 μM) was added to the reaction mixture to induce the platelet aggregation and then the change in light transmission was measured for 10 minutes. In this experiment, the light transmission degree for Tyrode's buffer solution was used as the control. [drawing 7]
The result was determined by calculating the relative ratio of the light transmission degree obtained in each case to the light transmission degree obtained from treatment only with platelet agonists, which is regarded as 100% aggregation.

washed platelet [3] = assay: Excretion of lactic acid dehydrogenase (LDH) from platelets, cytotoxicity; format: cell-based, rat; conditions: for Concentration of LDH: NQ-Y15 0.1 mM, Triton X-100 0.1%
Excerpt: Lactic acid dehydrogenase (LDH) is an enzyme present in cytoplasm of platelets and is excreted from platelet cytoplasm into extracellular fluid when platelet membrane is injured or cytotoxicity such as cytolysis is induced. Accordingly, it was intended to identify whether the compound of the present invention induces the cytotoxicity by quantitatively measuring lactic acid dehydrogenase excreted after the pre-treatment with the compound of the present invention.
To the washed platelet, dimethylsulfoxide(DMSO) (control group) which can dissolve the compound, NQ-Y15, of the present invention, NQ-Y15 or Triton X-100 (0.1%) which can disrupt the cellular membrane was added. Then, this mixture was centrifuged under 12,000×g at room temperature for 2 minutes to separate the supernatant. To the separated supernatant was added a reagent for measuring lactic acid dehydrogenase LD-L10^R (Sigma) and then the excreted lactic acid dehydrogenase was quantitatively analyzed by means of an automated clinical chemistry analyzer SBA300 (Gilford) which can automatically quantitate lactic acid dehydrogenase.

[4] = tested on: [14C]-serotonin-loaded platelet (washed platelet); assay: Inhibition of 5-[14C]-serotonin secretion from agonist-activated platelets; format: cell-based, rat
Excerpt: Contrary to other cells, platelets contain numerous granules such as dense granule, α-granule, lysosome and peroxisome, each of which preserves very useful physiological substances. When platelet is activated by any stimulus, substances contained in granules are secreted out of the cells through exocytosis. Particularly, dense granule contains adenine nucleotides such as adenosine diphosphate (ADP), adenosine triphosphate (ATP), etc, calcium, serotonin, etc., which are secreted upon aggregation of platelets and then cause irreversible secondary aggregation. Thus, it can be said that irreversible secondary aggregation induced by ADP, thrombin, etc. is the result of such granule secretion. […]
The inhibitory activity of the compound of the present invention against serotonin secretion was determined using [^14 C]-serotonin-loaded platelet according to the method of Huzoor, et. al. (see, Huzoor-Akbar, Patel, S., Kokrady, S., Witiak, D. T., Newman, H. A. I. and Feller, D. R., Biochem. Pharmacol. 30, 2013-2020, 1981). […] This mixture was then centrifuged under 12,000×g at room temperature for 2 minutes to separate the supernatant from which the radioactivity of 5-[^14 C]-serotonin was measured.

human platelet = conditions: Blackwell et al., Thromb. Res. 37, 103-114, 1985; cited from earlier work

CC1=C(Cl)C(=O)c2ccccc2C1=O [2-chloro-3-methyl-1,4-naphthoquinone]
inhibition of platelet aggregation in rabbit (in words) (rabbit platelet): inhibits the platelet aggregation in rabbit

N#Cc1ccc(NC2=C(Cl)C(=O)c3ccccc3C2=O)cc1 [NQ-Y15, 2-chloro-3-[(4-cyanophenyl)-amino]-1,4-naphthoquinone]
Thromboxane B2 ([1]; NQ-Y15 10 μM + collagen): 78.33 ± 11.85 ng/mL
Thromboxane B2 ([1]; NQ-Y15 30 μM + collagen): 15.30 ± 2.84 ng/mL
Thromboxane B2 ([1]; NQ-Y15 50 μM + collagen): 8.50 ± 1.81 ng/mL
inhibition at 30 µM ([1]; Rattus norvegicus, Platelet, 30 μM, read-out: inhibitory effect on the increase in thromboxane A2 production induced by collagen): 15.5%
inhibition at 50 µM ([1]; Rattus norvegicus, Platelet, 50 μM, read-out: inhibitory effect on the increase in thromboxane A2 production induced by collagen): 86.3%
IC50 (washed platelet [2]; Rattus norvegicus, Platelet, A23187 2 μM, 8 min pre-treatment (FIG. 3)): ~100 µM
IC50 (washed platelet [2]; Rattus norvegicus, Platelet, collagen 10 μg/ml, 8 min pre-treatment (FIG. 2)): ~7 µM
IC50 (washed platelet [2]; Rattus norvegicus, Platelet, thrombin 0.1U/ml, 8 min pre-treatment (FIG. 1)): ~38 µM
IC100 (washed platelet [2]; Rattus norvegicus, Platelet, agonist not stated, read-out: concentration to completely inhibit the platelet aggregation): 100 µM
inhibition of platelet aggregation induced by platelet agonists (in words) (washed platelet [2]; thrombin, collagen and A23187, FIGS. 1 to 3): inhibits the platelet aggregation induced by platelet agonists dependent upon its concentration
Concentration of LDH (washed platelet [3]; 0 min, DMSO 6.13 ± 1.13): 2.87 ± 0.12 U/L
LDH excretion versus control group / cytotoxicity (in words) (washed platelet [3]; 0.1 mM, pre-treated for 120 minutes): does not show any significant difference from the control group; also recorded: does not cause a cytotoxicity even at high concentration
Concentration of LDH (washed platelet [3]; 10 min, DMSO 5.73 ± 2.54): 4.57 ± 1.05 U/L
Concentration of LDH (washed platelet [3]; 20 min, DMSO 8.25 ± 1.85): 5.47 ± 0.52 U/L
Concentration of LDH (washed platelet [3]; 40 min, DMSO 9.77 ± 1.37): 8.47 ± 0.43 U/L
Concentration of LDH (washed platelet [3]; 80 min, DMSO 12.20 ± 1.74): 11.55 ± 0.05 U/L
Concentration of LDH (washed platelet [3]; 120 min, DMSO 14.83 ± 1.39): 16.67 ± 1.24 U/L
inhibition of serotonin secretion increased by collagen (in words) ([4]; collagen, within concentration range inhibiting platelet aggregation (FIG. 5)): inhibits the serotonin secretion
inhibition of serotonin secretion increased by thrombin (in words) ([4]; thrombin, within concentration range inhibiting platelet aggregation (FIG. 4)): inhibits the serotonin secretion increased by thrombin

Triton X-100 [reference compound]
Concentration of LDH (washed platelet [3]; 0 min, DMSO 6.13 ± 1.13): 426.40 ± 9.64 U/L
Concentration of LDH (washed platelet [3]; 10 min, DMSO 5.73 ± 2.54): 443.07 ± 1.27 U/L
Concentration of LDH (washed platelet [3]; 20 min, DMSO 8.25 ± 1.85): 444.93 ± 4.97 U/L
Concentration of LDH (washed platelet [3]; 40 min, DMSO 9.77 ± 1.37): 442.20 ± 0.87 U/L
Concentration of LDH (washed platelet [3]; 80 min, DMSO 12.20 ± 1.74): 443.73 ± 0.37 U/L
Concentration of LDH (washed platelet [3]; 120 min, DMSO 14.83 ± 1.39): 443.30 ± 2.53 U/L

CC1=CC(=O)c2ccccc2C1=O [vitamin K3, menadione]
inhibition of platelet aggregation in human being (in words) (human platelet): has an effect on inhibition of platelet aggregation in human being
